PMC10046369, “Low-Affinity/High-Selectivity Dopamine Transport Inhibition Sufficient to Rescue Cognitive Functions in the Aging Rat” (Biomolecules, 2023)

Assays:
Assay in all cases: biochemical
Parameters in all cases: KINOMEscan competition binding panel, per cent of control
Conditions in all cases: read-out: %Ctrl @ 2800nM
MET = MET (Homo sapiens, UniProt P08581)
Outline: (§1)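 Values are expressed as percent of control, calculated as ((test − positive control)/(negative control − positive control)) × 100, so lower numbers mean stronger hits. Binding was measured by KINOMEscan competition assay in a 450-kinase human panel including disease mutants, using the contractor's validated protocol.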

MYLK2 = MYLK2 (Homo sapiens, UniProt Q9H1R3)
Outline: as §1

ARK5 = molecular target: T1, ARK5 (Homo sapiens, UniProt O60285)
T1 construct: gene NUAK1
Outline: as §1

CAMK1D = CAMK1D (Homo sapiens, UniProt Q8IU85)
Outline: as §1

PIKFYVE = PIKFYVE (Homo sapiens, UniProt Q9Y2I7)
Outline: as §1

EGFR(G719C) = EGFR(G719C) (Homo sapiens, UniProt P00533, G719C)
Outline: as §1

PLK4 = PLK4 (Homo sapiens, UniProt O00444)
Chain of PLK4 (O00444 whole entry): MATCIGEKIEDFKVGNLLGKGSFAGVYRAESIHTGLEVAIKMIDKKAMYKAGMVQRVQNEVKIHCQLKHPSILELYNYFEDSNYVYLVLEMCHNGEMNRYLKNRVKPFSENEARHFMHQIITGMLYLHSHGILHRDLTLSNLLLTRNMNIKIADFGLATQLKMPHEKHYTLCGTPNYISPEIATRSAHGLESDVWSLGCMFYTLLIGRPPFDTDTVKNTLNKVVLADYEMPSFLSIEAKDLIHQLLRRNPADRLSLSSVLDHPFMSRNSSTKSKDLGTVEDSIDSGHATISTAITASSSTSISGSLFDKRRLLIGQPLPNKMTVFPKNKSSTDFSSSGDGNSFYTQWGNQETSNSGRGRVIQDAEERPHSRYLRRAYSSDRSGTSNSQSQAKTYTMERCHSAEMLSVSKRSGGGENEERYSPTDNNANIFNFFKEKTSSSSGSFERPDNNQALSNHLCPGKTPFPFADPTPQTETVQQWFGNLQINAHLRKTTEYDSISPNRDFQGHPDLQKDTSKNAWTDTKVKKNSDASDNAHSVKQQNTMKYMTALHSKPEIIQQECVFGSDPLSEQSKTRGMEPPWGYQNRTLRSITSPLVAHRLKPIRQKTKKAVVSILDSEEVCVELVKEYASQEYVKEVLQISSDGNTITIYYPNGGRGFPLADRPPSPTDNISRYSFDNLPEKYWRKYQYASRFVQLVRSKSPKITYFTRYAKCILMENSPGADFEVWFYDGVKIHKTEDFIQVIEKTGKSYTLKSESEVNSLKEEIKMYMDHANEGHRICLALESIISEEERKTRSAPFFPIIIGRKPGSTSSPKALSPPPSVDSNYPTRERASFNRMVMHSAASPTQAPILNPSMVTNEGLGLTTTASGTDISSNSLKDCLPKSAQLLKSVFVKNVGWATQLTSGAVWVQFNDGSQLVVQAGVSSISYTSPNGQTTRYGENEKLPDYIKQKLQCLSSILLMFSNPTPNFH
Outline: as §1

IGF1R = IGF1R (Homo sapiens, UniProt P08069)
Outline: as §1

LATS2 = LATS2 (Homo sapiens, UniProt Q9NRM7)
Chain of LATS2 (Q9NRM7 whole entry): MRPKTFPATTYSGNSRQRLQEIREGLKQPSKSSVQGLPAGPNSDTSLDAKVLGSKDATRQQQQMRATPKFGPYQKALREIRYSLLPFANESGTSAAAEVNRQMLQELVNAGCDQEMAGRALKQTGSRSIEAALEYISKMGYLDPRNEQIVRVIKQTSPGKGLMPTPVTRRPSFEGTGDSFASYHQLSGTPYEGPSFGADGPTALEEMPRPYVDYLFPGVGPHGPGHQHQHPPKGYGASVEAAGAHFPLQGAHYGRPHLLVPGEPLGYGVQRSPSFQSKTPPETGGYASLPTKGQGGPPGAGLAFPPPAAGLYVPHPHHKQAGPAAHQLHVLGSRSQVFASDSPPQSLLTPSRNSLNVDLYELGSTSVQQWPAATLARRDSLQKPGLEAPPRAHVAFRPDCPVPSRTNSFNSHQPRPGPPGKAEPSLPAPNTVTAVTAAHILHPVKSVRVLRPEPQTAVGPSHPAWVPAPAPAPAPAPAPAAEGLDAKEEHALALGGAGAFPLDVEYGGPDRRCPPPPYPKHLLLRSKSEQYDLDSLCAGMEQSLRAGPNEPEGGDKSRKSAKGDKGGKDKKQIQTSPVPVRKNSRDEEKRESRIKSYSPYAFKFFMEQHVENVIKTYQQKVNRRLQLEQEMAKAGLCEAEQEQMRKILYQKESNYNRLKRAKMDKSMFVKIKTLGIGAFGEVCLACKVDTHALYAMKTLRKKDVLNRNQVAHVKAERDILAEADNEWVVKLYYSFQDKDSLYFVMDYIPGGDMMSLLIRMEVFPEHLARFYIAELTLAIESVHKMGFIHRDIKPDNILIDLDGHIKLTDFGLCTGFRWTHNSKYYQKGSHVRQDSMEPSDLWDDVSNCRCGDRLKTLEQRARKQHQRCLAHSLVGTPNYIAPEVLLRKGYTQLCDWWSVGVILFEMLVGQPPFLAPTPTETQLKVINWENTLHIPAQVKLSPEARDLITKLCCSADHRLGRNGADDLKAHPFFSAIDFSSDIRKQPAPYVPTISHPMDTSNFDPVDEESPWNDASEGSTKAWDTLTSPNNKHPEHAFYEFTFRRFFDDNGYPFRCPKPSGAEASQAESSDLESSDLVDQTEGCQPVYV
Outline: as §1

CSNK1A1L = CSNK1A1L (Homo sapiens, UniProt Q8N752)
Outline: as §1

MLCK = molecular target: T2, MLCK (Homo sapiens, UniProt Q32MK0)
T2 construct: gene MYLK3
Outline: as §1

ROS1 = ROS1 (Homo sapiens, UniProt P08922)
Outline: as §1

FLT3(N841I) = FLT3(N841I) (Homo sapiens, UniProt P36888, N841I)
Outline: as §1

JNK3 = molecular target: T3, JNK3 (Homo sapiens, UniProt P53779)
T3 construct: gene MAPK10
T3 sequence (P53779 whole entry): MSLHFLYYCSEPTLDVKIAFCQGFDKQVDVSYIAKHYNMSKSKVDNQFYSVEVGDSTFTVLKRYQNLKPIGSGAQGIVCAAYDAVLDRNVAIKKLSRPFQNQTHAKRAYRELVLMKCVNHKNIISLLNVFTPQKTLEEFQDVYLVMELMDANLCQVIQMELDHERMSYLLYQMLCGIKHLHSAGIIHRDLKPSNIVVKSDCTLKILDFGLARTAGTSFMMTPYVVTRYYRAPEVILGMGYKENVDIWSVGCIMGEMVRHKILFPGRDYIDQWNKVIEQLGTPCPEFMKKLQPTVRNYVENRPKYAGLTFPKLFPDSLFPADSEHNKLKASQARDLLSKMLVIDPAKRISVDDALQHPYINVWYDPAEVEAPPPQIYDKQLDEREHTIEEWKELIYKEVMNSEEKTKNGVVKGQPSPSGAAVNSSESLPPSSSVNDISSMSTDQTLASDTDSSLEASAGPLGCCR
Outline: as §1

PRKCE = PRKCE (Homo sapiens, UniProt Q02156)
Chain of PRKCE (Q02156 whole entry): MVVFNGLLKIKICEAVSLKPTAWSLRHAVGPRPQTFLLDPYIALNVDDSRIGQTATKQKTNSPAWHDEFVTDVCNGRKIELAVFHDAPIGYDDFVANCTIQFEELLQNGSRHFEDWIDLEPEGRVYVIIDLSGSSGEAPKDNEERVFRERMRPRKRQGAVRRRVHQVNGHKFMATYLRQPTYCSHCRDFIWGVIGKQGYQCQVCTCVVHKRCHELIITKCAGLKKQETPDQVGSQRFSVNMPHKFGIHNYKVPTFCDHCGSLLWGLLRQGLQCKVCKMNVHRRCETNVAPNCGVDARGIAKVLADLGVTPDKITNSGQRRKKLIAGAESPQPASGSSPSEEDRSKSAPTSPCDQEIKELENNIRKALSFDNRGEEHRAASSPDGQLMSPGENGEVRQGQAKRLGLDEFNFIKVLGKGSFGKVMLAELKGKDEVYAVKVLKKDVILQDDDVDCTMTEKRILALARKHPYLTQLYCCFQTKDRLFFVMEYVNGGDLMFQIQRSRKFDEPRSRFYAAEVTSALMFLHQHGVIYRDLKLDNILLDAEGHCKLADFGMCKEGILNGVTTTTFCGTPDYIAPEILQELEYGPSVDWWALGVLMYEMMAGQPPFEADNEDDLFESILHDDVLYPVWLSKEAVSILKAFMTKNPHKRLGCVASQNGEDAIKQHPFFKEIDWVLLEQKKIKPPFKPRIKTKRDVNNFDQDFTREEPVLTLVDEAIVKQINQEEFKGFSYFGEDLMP
Outline: as §1

TRKC = molecular target: T4, TRKC (Homo sapiens, UniProt Q16288)
T4 construct: gene NTRK3
Outline: as §1

IRAK4 = IRAK4 (Homo sapiens, UniProt Q9NWZ3)
Chain of IRAK4 (Q9NWZ3 whole entry): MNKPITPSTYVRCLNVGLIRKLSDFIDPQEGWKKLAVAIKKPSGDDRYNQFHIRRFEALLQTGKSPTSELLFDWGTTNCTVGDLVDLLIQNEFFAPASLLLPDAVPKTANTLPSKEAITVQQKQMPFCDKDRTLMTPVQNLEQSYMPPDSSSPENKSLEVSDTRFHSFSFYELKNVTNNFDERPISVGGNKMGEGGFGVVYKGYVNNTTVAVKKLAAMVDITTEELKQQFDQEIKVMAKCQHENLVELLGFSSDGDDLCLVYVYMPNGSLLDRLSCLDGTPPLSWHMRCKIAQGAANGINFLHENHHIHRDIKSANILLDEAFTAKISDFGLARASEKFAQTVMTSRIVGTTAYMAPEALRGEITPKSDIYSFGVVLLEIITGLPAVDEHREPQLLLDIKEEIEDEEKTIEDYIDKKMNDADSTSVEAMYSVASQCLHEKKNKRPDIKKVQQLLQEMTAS
Outline: as §1

ABL1-nonphosphorylated = molecular target: T5, ABL1-nonphosphorylated (Homo sapiens, UniProt P00519)
T5 construct: nonphosphorylated
Outline: as §1

DCAMKL3 = molecular target: T6, DCAMKL3 (Homo sapiens, UniProt Q9C098)
T6 construct: gene DCLK3
Outline: as §1

PIP5K1C = PIP5K1C (Homo sapiens, UniProt O60331)
Outline: as §1

RIOK3 = RIOK3 (Homo sapiens, UniProt O14730)
Outline: as §1

p38-gamma = molecular target: T7, p38-gamma (Homo sapiens, UniProt P53778)
T7 construct: gene MAPK12
Outline: as §1

SGK2 = SGK2 (Homo sapiens, UniProt Q9HBY8)
Outline: as §1

RIPK5 = molecular target: T8, RIPK5 (Homo sapiens, UniProt Q6XUX3)
T8 construct: gene DSTYK
Outline: as §1

PRKCQ = PRKCQ (Homo sapiens, UniProt Q04759)
Chain of PRKCQ (Q04759 whole entry): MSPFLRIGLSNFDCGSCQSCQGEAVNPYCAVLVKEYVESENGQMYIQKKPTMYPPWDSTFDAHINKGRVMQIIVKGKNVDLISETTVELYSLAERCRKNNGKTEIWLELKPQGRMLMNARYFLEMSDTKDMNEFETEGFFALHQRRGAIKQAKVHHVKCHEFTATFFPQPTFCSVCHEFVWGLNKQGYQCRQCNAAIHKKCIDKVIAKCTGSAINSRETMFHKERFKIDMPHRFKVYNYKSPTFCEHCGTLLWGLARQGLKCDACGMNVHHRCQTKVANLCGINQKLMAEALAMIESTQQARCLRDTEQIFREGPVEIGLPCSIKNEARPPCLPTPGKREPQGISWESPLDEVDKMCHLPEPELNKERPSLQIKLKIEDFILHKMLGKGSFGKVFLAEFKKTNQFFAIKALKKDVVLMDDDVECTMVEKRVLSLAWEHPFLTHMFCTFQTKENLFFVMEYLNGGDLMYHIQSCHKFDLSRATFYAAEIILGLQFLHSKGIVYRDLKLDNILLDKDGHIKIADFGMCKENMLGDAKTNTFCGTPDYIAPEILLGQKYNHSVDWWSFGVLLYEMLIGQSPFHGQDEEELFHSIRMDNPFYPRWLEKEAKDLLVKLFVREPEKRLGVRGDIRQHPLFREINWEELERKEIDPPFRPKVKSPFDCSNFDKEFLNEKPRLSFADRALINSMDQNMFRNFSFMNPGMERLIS
Outline: as §1

CDK4 = CDK4 (Homo sapiens, UniProt P11802)
Chain of CDK4 (P11802 whole entry): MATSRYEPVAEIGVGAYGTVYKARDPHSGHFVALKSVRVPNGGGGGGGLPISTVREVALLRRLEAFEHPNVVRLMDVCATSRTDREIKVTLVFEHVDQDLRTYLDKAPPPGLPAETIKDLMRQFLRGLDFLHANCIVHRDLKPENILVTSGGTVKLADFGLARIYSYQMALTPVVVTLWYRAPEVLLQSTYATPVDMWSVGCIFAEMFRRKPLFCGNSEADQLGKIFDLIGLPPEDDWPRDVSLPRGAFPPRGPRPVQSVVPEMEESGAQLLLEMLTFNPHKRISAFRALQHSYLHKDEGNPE
Outline: as §1

[O-][S@@+](Cc1cncs1)C(c1ccccc1)c1ccccc1 [S-CE-123, (S)-5-((Benzhydrylsulfinyl)Methyl)Thiazole]
remaining binding at 2.8 µM (MET): 99% | remaining binding at 2.8 µM (MYLK2): 99% | remaining binding at 2.8 µM (ARK5): 100% | remaining binding at 2.8 µM (CAMK1D): 96% | remaining binding at 2.8 µM (PIKFYVE): 100% | remaining binding at 2.8 µM (EGFR(G719C)): 74% | remaining binding at 2.8 µM (PLK4): 89% | remaining binding at 2.8 µM (IGF1R): 94% | remaining binding at 2.8 µM (LATS2): 100% | remaining binding at 2.8 µM (CSNK1A1L): 100% | remaining binding at 2.8 µM (MLCK): 96% | remaining binding at 2.8 µM (ROS1): 91% | remaining binding at 2.8 µM (FLT3(N841I)): 91% | remaining binding at 2.8 µM (JNK3): 74% | remaining binding at 2.8 µM (PRKCE): 100% | remaining binding at 2.8 µM (TRKC): 100% | remaining binding at 2.8 µM (IRAK4): 94% | remaining binding at 2.8 µM (ABL1-nonphosphorylated): 93% | remaining binding at 2.8 µM (DCAMKL3): 96% | remaining binding at 2.8 µM (PIP5K1C): 100% | remaining binding at 2.8 µM (RIOK3): 97% | remaining binding at 2.8 µM (p38-gamma): 100% | remaining binding at 2.8 µM (SGK2): 100% | remaining binding at 2.8 µM (RIPK5): 95% | remaining binding at 2.8 µM (PRKCQ): 100% | remaining binding at 2.8 µM (CDK4): 100%
